Results taken from patent EP4741386A1 (Jiangsu Yahong Meditech Co., Ltd., priority 2023, dated 2025).

Experiments:
MDA-MB-436 = test: CTG experiment for cell viability (CellTiter-Glo, 96-well plate, 7 days); assay type: cell-based; settings: Homo sapiens, MDA-MB-436, 168 h, MDA-MB-436 cells, 7 days culture with compound
Outline: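 MDA-MB-436 cells in DMEM were plated in 96-well format, treated with compounds, and cultured 7 days at 37°C. After removing the medium, cells were given PBS plus CellTiter-Glo reagent, incubated 10 min at room temperature, and luminescence was read. Curves were fitted as for the enzyme assay.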

[1] = biological target: T1, Recombinant human His6-USP1/His6-UAF1 complex protein (Homo sapiens, UniProt O94782); test: In vitro inhibitory activity against USP1 (Ubiquitin Rhodamine 110 fluorescence detection, 384-well plate); assay type: biochemical; settings: Ub-Rho substrate, 1 hour pre-incubation, read after 30 minutes
T1 construct: His6; purchased R&D E-568-050
T1 sequence (O94782 whole entry): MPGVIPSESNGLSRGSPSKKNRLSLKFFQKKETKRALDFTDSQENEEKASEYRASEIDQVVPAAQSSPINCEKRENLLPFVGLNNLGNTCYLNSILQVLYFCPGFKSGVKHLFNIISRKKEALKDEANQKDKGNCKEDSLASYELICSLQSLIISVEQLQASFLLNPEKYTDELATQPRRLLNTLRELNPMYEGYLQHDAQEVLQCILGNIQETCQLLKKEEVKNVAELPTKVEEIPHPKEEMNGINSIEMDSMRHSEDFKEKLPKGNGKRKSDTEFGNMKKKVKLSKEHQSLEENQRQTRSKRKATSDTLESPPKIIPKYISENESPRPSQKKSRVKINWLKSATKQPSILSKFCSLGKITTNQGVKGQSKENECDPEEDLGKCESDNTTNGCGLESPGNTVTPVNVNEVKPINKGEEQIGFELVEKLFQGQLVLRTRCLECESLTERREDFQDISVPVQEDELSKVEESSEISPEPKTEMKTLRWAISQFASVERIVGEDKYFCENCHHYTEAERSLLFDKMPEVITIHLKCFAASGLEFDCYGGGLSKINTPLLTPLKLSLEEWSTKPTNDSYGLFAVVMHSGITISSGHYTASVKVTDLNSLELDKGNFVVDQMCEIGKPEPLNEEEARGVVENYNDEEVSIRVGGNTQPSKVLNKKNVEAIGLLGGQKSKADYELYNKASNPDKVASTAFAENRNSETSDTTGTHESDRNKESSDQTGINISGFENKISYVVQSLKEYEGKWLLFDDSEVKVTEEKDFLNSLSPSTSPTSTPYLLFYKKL
T1 sequence (Q8TAF3 whole entry partner): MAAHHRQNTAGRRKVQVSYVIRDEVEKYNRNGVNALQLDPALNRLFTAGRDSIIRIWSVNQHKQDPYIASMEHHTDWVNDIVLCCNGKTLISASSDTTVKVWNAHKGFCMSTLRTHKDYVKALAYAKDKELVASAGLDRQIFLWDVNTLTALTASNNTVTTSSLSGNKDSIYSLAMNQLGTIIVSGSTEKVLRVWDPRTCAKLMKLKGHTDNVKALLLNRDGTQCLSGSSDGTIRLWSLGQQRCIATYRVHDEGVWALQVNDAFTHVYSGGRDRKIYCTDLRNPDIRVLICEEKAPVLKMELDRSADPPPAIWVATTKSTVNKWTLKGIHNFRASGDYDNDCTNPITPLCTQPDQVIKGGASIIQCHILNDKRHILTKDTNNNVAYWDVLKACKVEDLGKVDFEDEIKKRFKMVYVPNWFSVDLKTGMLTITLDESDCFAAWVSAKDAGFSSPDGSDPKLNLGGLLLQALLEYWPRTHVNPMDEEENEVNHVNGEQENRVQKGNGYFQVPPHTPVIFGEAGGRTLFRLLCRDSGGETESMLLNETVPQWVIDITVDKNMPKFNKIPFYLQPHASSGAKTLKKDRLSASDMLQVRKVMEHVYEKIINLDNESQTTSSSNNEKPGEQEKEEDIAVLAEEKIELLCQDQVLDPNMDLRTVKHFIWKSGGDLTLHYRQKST
Outline: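 Fluorescence assay measuring inhibition of recombinant human His6-USP1/His6-UAF1 complex with Ubiquitin-Rhodamine 110 substrate. Compounds held as 50 mM stocks in 100% DMSO and dispensed by acoustic transfer into modified Tris assay buffer.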

Row | SMILES | IC50 (MDA-MB-436) [nM] | IC50 [1] [nM]
1 | COc1cc(CNc2nc(-c3ccccc3C3CC3)ncc2OC)ccc1-c1nc(C(F)(F)F)cn1C [Example 172, 2-(2-Cyclopropylphenyl)-5-methoxy-N-(3-methoxy-4-(1-methyl-4-(trifluoromethyl)-1H-imidazol-2-yl)benzyl)pyrimidin-4-amine] | 954 | 12
2 | CC(C)c1ccccc1-c1nc(NCc2ccc(-c3ccccn3)cc2)c2occc2n1 [Example 32, 2-(2-isopropylphenyl)-N-(4-(pyridin-2-yl)benzyl)furo [3,2-d] pyrimidin-4-amine] | 336 | 2.8
3 | COc1cnc(-c2c(OC)ncnc2C2CC2)nc1N(O)Cc1ccc(-c2nc(C(F)(F)F)cn2C)cc1 [Example 204, N-(4'-cyclopropyl-5,6'-dimethoxy-[2,5'-bipyrimidin]-4-yl)-N-(4-(1-methyl-4-(trifluoromethyl)-1H-imidazol-2-yl)benzyl)hydroxylamine] | 15.7 | 25
4 | COc1cnc(-c2ccccc2C(C)C)nc1NCC1CCN(c2nc(C(F)(F)F)cn2C)CC1 [Example 65, 2-(2-Isopropylphenyl)-5-methoxy-N-((1-(1-methyl-4-(trifluoromethyl)-1H-imidazol-2-yl)piperidin-4-yl)methyl)pyrimidin-4-amine] | 2.4 | 2.1
5 | COc1cnc(-c2ccccc2C(C)C)nc1NCc1ccc(-n2nc(C(F)(F)F)cc2C)cc1 [Example 7, 2-(2-Isopropylphenyl)-5-methoxy-N-(4-(5-methyl-3-(trifluoromethyl)-1H-pyrazol-1-yl)benzyl)pyrimidin-4-amine] | 102 | 4.5
6 | COc1cnc(-c2c(Cl)cnn2C(C)C)nc1NCC1CCN(c2nc(C(F)(F)F)cn2C)CC1 [Example 163, 2-(4-Chloro-1-isopropyl-1H-pyrazol-5-yl)-5-methoxy-N-((1-(1-methyl-4-(trifluoromethyl)-1H-imidazol-2-yl)piperidin-4-yl)methyl)pyrimidin-4-amine] | 13.5 | 2.3
7 | COc1cnc(-c2c(OC)ncnc2C2CC2)nc1NCc1ccc(-c2nc(C(F)(F)F)cn2CF)cc1 [Example 107, 4'-Cyclopropyl-N-(4-(1-(fluoromethyl)-4-(trifluoromethyl)-1H-imidazol-2-yl)benzyl)-5,6'-dimethoxy-[2,5'-bipyrimidin]-4-amine] | 17.5 | 16
8 | COc1cc(-c2nc(C(F)(F)F)cn2C)ccc1CNc1nc(-c2c(OC)ncnc2C2CC2)ncc1OC [Example 100, 4'-Cyclopropyl-5,6'-dimethoxy-N-(2-methoxy-4-(1-methyl-4-(trifluoromethyl)-1H-imidazol-2-yl)benzyl)-[2,5'-bipyrimidin]-4-amine] | 27.8 | 4.1
9 | COc1cc(CNc2nc(-c3ccccc3C(C)C)ncc2OC)ccc1-n1nc(C(F)(F)F)cc1C [Example 69, 2-(2-Isopropylphenyl)-5-methoxy-N-(3-methoxy-4-(5-methyl-3-(trifluoromethyl)-1H-pyrazol-1-yl)benzyl)pyrimidin-4-amine] | 709 | 9.2
10 | Cc1noc(C(C)C)c1-c1nc(NCc2ccc(-c3ccccn3)cc2)c2occc2n1 [Example 189, 2-(5-Isopropyl-3-methylisoxazol-4-yl)-N-(4-(pyridin-2-yl)benzyl)furo[3,2-d]pyrimidin-4-amine] | 307 | 16
11 | COc1cc(-c2nc(C(F)(F)F)cn2C)ccc1CNc1nc(-c2ccccc2C(C)C)nc2ccoc12 [Example 81, 2-(2-Isopropylphenyl)-N-(2-methoxy-4-(1-methyl-4-(trifluoromethyl)-1H-imidazol-2-yl)benzyl)furo[3,2-d]pyrimidin-4-amine] | 66.1 | 3.7

Second part, the molecule after the results:

Row | IC50 (MDA-MB-436) [nM] | IC50 [1] [nM] | SMILES
12 | 15.8 | 3.2 | COc1ncnc(C2CC2)c1-c1ncc(OC(F)F)c(NCc2ccc(-n3nc(C(F)(F)F)cc3C)cc2)n1 [Example 135, 4'-Cyclopropyl-5-(difluoromethoxy)-6'-methoxy-N-(4-(5-methyl-3-(trifluoromethyl)-1H-pyrazol-1-yl)benzyl)-[2,5'-bipyrimidin]-4-amine]
13 | 0.9 | 4.6 | COc1cnc(-c2c(OC)ncnc2C2CC2)nc1NCc1ccc(-n2nc(C(F)(F)F)cc2C)cc1 [Example 26, 4'-Cyclopropyl-5,6'-dimethoxy-N-(4-(5-methyl-3-(trifluoromethyl)-1H-pyrazol-1-yl)benzyl)-[2,5'-bipyrimidin]-4-amine]
14 | 12.4 | 9 | COCc1cnc(-c2c(OC)ncnc2C2CC2)nc1N(C)Cc1ccc(-c2nc(C(F)(F)F)cn2C(C)C)cc1 [Example 138, 4'-Cyclopropyl-N-(4-(1-isopropyl-4-(trifluoromethyl)-1H-imidazol-2-yl)benzyl)-6'-methoxy-5-(methoxymethyl)-N-methyl-[2,5'-bipyrimidin]-4-amine]
15 | 32.6 | 12 | COc1cnc(-c2c(OC)ncnc2C(F)(F)F)nc1N(C)C[C@H]1CC[C@H](c2nc(C(F)(F)F)cn2C(C)C)CC1 [Example S37, N-(((1R,4R)-4-(1-isopropyl-4-(trifluoromethyl)-1H-imidazol-2-yl)cyclohexyl)methyl)-4',5-dimethoxy-N-methyl-6'-(trifluoromethyl)-[2,5'-bipyrimidin]-4-amine]
16 | 2.2 | 2.1 | COc1cnc(-c2ccccc2C(C)C)nc1N(C)CC1CCN(c2nc(C(F)(F)F)cn2C)CC1 [Example 62, 2-(2-Isopropylphenyl)-5-methoxy-N-methyl-N-((1-(1-methyl-4-(trifluoromethyl)-1H-imidazol-2-yl)piperidin-4-yl)methyl)pyrimidin-4-amine]
17 | 24.9 | 17 | COc1cc(-c2nc(C(F)(F)F)cn2C)ccc1CNc1nc(-c2c(OC)ncnc2C2CC2)ncc1OC(F)F [Example 136, 4'-Cyclopropyl-5-(difluoromethoxy)-6'-methoxy-N-(2-methoxy-4-(1-methyl-4-(trifluoromethyl)-1H-imidazol-2-yl)benzyl)-[2,5'-bipyrimidin]-4-amine]
18 | 533 | 91.5 | COc1ncnc(C2CC2)c1-c1ncc2c(n1)N(CC1CCN(c3nc(C(F)(F)F)cn3C)CC1)CCO2 [Example 20, 2-(4-Cyclopropyl-6-methoxypyrimidin-5-yl)-8-((1-(1-methyl-4-(trifluoromethyl)-1H-imidazol-2-yl)piperidin-4-yl)methyl)-7,8-dihydro-6H-pyrimido[5,4-b][1,4] oxazine]
19 | 141 | 10 | COc1cc(CNc2nc(-c3c(OC)ncnc3C3CC3)ncc2OC)ccc1-n1nc(C(F)(F)F)cc1C [Example 103, 4'-Cyclopropyl-5,6'-dimethoxy-N-(3-methoxy-4-(5-methyl-3-(trifluoromethyl)-1H-pyrazol-1-yl)benzyl)-[2,5'-bipyrimidin]-4-amine]
20 | 2.7 | 1.4 | COc1cnc(-c2c(OC)ncnc2C2CC2)nc1NCC12C3C4C1C1C2C3C41c1nc(C(F)(F)F)cn1C1CC1 (centres unmarked) [Example 216, 4'-cyclopropyl-N-((4-(1-cyclopropyl-4-(trifluoromethyl)-1H-imidazol-2-yl)cuban-1-yl)methyl)-5,6'-dimethoxy-[2,5'-bipyrimidin]-4-amine]
21 | 22.5 | 0.47 | C#Cc1cnc(-c2ccccc2C(C)C)nc1NCc1ccc(-c2nc(C(F)(F)F)cn2C)cc1 [Example 85, 5-Ethynyl-2-(2-isopropylphenyl)-N-(4-(1-methyl-4-(trifluoromethyl)-1H-imidazol-2-yl)benzyl)pyrimidin-4-amine]
22 | 600 | 19.4 | CC(C)Oc1cnc(-c2ccccc2C(C)C)nc1N(C)CC1CCN(c2nc(C(F)(F)F)cn2C)CC1 [Example 70, 5-Isopropoxy-2-(2-isopropylphenyl)-N-methyl-N-((1-(1-methyl-4-(trifluoromethyl)-1H-imidazol-2-yl)piperidin-4-yl)methyl)pyrimidin-4-amine]
23 | 12.1 | 6.9 | COc1cnc(-c2c(OC)ncnc2C2CC2)nc1N(C#N)CC12CCC(c3nc(C(F)(F)F)cn3C)(CC1)CC2 [Example S43]
24 | 274 | 9.9 | CC(C)Oc1cnc(-c2ccccc2C(C)C)nc1N(C)Cc1ccc(-c2nc(C(F)(F)F)cn2C)cc1 [Example 71, 5-Isopropoxy-2-(2-isopropylphenyl)-N-methyl-N-(4-(1-methyl-4-(trifluoromethyl)-1H-imidazol-2-yl)benzyl)pyrimidin-4-amine]
25 | 0.1 | 14 | COc1cnc(-c2ccccc2C(C)C)nc1N(C)CC1CCN(c2ccccn2)CC1 [Example 2, 2-(2-Isopropylphenyl)-5-methoxy-N-methyl-N-((1-(pyridin-2-yl)piperidin-4-yl)methyl)pyrimidin-4-amine]
26 | 14.6 | 5.6 | COc1cnc(-c2ccccc2C(C)C)nc1NCc1ccc(-c2ccc(C)cn2)cc1 [Example 66, 2-(2-Isopropylphenyl)-5-methoxy-N-(4-(5-methylpyridin-2-yl)benzyl)pyrimidin-4-amine]
27 | 12 | 4.8 | COc1cnc(-c2c(OC)ncnc2C2CC2)nc1NCc1ccc(-c2nc(C(F)(F)F)cn2C)cc1 [Example 96, 4'-Cyclopropyl-5,6'-dimethoxy-N-(4-(1-methyl-4-(trifluoromethyl)-1H-imidazol-2-yl)benzyl)-[2,5'-bipyrimidin]-4-amine]
28 | 43.7 | 5.1 | Cc1cc(C(F)(F)F)nn1-c1ccc(CNc2nc(-c3ccccc3C3CC3)nc3ccoc23)cc1 [Example 174, 2-(2-Cyclopropylphenyl)-N-(4-(5-methyl-3-(trifluoromethyl)-1H-pyrazol-1-yl)benzyl)furo[3,2-d]pyrimidin-4-amine]
